Reference: PubChem BioAssay AID1645863 (Buhrlage Lab, Dana-Farber Cancer Institute and Novartis …, 2021)
Calls of active or inactive are those of the source. How the calls were made is not given here.

Each compound was assayed against Ubiquitin carboxyl-terminal hydrolase 10 (Homo sapiens) (UniProt Q14694) (assay: primary hit verification, biochemical, ubiquitin-specific protease 10 deubiquitylase inhibitors, concentration-effect titration (AID 1645863;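 further: potency values describe inhibition of USP10 cleavage of a fluorogenic ubiquitin substrate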)). Details: USP10 deubiquitinase enzymatic assay.
Sequence of Ubiquitin carboxyl-terminal hydrolase 10 (Homo sapiens) (Q14694 whole entry, looked up): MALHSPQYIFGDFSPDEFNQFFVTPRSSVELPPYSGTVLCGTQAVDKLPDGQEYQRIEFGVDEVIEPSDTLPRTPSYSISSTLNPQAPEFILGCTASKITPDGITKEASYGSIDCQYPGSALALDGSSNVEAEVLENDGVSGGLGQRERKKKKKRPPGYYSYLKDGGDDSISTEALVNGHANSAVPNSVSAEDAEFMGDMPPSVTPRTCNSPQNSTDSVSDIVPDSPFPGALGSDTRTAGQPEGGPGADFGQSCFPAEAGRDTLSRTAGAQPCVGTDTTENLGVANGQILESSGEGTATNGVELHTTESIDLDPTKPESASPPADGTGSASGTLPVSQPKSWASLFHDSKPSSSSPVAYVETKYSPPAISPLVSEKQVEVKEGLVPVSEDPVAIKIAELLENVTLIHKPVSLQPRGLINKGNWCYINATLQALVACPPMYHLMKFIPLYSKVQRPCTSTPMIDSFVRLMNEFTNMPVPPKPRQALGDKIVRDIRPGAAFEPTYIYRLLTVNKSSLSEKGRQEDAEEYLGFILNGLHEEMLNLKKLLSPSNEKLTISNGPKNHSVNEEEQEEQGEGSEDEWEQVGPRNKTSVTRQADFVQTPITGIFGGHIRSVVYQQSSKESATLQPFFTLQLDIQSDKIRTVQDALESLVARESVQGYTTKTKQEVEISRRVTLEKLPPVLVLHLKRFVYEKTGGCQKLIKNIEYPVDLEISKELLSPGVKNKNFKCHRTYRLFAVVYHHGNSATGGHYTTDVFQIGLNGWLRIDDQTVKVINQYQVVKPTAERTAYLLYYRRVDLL
CCCCNC(=O)CSc1nnc(-c2cc3ccccc3n2C)o1 was tested, and the IC50 was > 40 µM (inactive).
For O=C(NCC1(c2ccccc2)CCC1)c1nc2n(n1)-c1ccccc1S(=O)(=O)N2, the IC50 was 12.8 µM.
In the case of COc1cccc(-c2cc(C(=O)Nc3cc(C)n(Cc4ccc(Cl)cc4)n3)no2)c1, the IC50 is reported as > 40 µM (inactive).
In the case of CC(=O)c1ccc(N2CCN(S(=O)(=O)c3cc4c(cc3C)NC(=O)CO4)CC2)cc1, the IC50 is reported as > 40 µM (inactive).
CN1C(=O)COc2cc(-c3noc(C(=O)NCc4ccc(F)cc4)n3)ccc21 was tested, and the IC50 was 24.9 µM.
With O=C(c1cscn1)N1CCC2(CC1)CC1(CO2)Nc2ccccc2-n2cccc21 (stereo not given) the IC50 was > 40 µM (inactive).
For Cc1ccccc1NC(=O)Cc1csc2nc(-c3ccc(F)cc3)cn12, the IC50 was > 40 µM (inactive).
NC(=O)C[C@H](NC(=O)[C@H](Cc1ccccc1)n1c(=O)[nH]c2ccccc2c1=O)C(=O)N[C@@H](Cc1ccccc1)C(=O)O was tested, and the IC50 was > 40 µM (inactive).
COc1ccc(NC(=O)c2cc(-c3cccnc3)n[nH]2)cc1Cl gave an IC50 of 28.5 µM.
Cc1cccc(C(=O)Nc2cccc(SC(C(=O)Nc3ccc(Cl)c(C(=O)O)c3)c3ccccc3)c2)c1 (stereo not given) showed an IC50 of 7.42 µM.
In the case of Cc1cc(C(F)(F)F)n2nc(C3CCN(C(=O)c4cnn(C)c4C)C3)cc2n1 (stereo not given), the IC50 is reported as > 40 µM (inactive).
For O=C(Nc1ccccc1C(=O)O)c1ccc(CSCc2ccccc2)cc1, the IC50 was 10.4 µM.
With Cc1ccc(-n2c(=O)[nH]c3c(C(N)=O)nc(-c4ccc(OCc5ccccc5)cc4)nc32)cc1 the IC50 was > 40 µM (inactive).
Work on COc1ccc(Nc2nc3c(S(=O)(=O)c4ccc(C)cc4)nnn3c3ccsc23)c(OC)c1 yielded an IC50 of 10.5 µM.
COc1cc(OC)c2c(c1)C(=O)C1=C(COC(C)(O)C1)C2=O (stereo not given) was tested, and the IC50 was > 40 µM (inactive).
For Cc1noc(C)c1COc1cccc(C(=O)Nc2cc(Cl)ccc2-n2cncn2)c1, the IC50 was > 40 µM (inactive).
COc1cccc(C(=O)Nc2nc(-c3nnn(-c4ccc(C)c(F)c4)c3C)ns2)c1 was tested, and the IC50 was > 40 µM (inactive).
With COc1ccc(-c2nc(NCCCN3CCOCC3)c3ccccc3n2)cc1 the IC50 was > 40 µM (inactive).
For N#C/C(=C\c1ccccc1F)c1nnc(N)s1, the IC50 was > 40 µM (inactive).
For COc1ccc2c(c1)CCc1c-2n[nH]c1C(=O)Nc1cc(C)on1, the IC50 was > 40 µM (inactive).
In the case of Cc1c(-c2nn3c(-c4ccco4)nnc3s2)cccc1[N+](=O)[O-], the IC50 is reported as > 40 µM (inactive).
CCCCCCCCC/C=C/C(=O)CCc1c(O)c(C=O)c2c(c1O)C(=O)OC2O (stereo not given) gave an IC50 of 0.584 µM.
Cc1ccc(C(=O)c2cn(CC(=O)Nc3ccccc3)c3ccc(C)cc3c2=O)cc1 was tested, and the IC50 was > 40 µM (inactive).
In the case of C=C/C(C)=C/[C@@]1(C)SC(=O)C(C)=C1O, the IC50 is reported as 10.4 µM.
In the case of COC(=O)c1ccccc1NC(=O)Cn1c(=O)n(CCCC(=O)NCc2ccco2)c(=O)c2ccccc21, the IC50 is reported as 13 µM.
With O=C(COC(=O)c1cccc([N+](=O)[O-])c1)Nc1cccc(Oc2ccccc2)c1 the IC50 was > 40 µM (inactive).
With Fc1ccccc1-c1nnc(C2(c3ccc4c(c3)OCO4)CCOCC2)o1 the IC50 was > 40 µM (inactive).
In the case of COc1ccc(NC(=O)Cn2c(=O)n(CCCCC(=O)NCc3ccco3)c(=O)c3ccccc32)cc1Cl, the IC50 is reported as > 40 µM (inactive).
With Cc1nnc(-c2cc(S(=O)(=O)N3CCN(c4ccc(F)cc4)CC3)c[nH]2)o1 the IC50 was > 40 µM (inactive).
In the case of O=[N+]([O-])c1ccc2c(c1)nc1n2CCN(Cc2ccco2)C1, the IC50 is reported as > 40 µM (inactive).
In the case of COc1ccc(NS(=O)(=O)c2cc(NC(=O)CC(=O)c3ccc([N+](=O)[O-])cc3)ccc2C)cc1, the IC50 is reported as > 40 µM (inactive).
In the case of CC(=O)c1ccc(NC(=O)CCc2c(C)c3c(C)nn(-c4ccccc4)c3n(C)c2=O)cc1, the IC50 is reported as > 40 µM (inactive).
With COc1cc2c(c(OCC(=O)Nc3ccc4c(c3)OCCO4)c1)C(=O)O[C@@H](C)CCCC(=O)CCCCC2 the IC50 was 31.5 µM.
In the case of O=c1cc(-c2ccc(O)c(O)c2)oc2cc(O)cc(O)c12, the IC50 is reported as 1.8 µM.
With O=C1Nc2ccccc2C(=O)C1C(c1ccc(Cl)cc1)C1C(=O)Nc2ccccc2C1=O (stereo not given) the IC50 was 10.2 µM.
In the case of COc1ccc(S(=O)(=O)NCc2ccc3c(c2)cc(C)n3C)cc1, the IC50 is reported as > 40 µM (inactive).
Work on COC(=O)c1c(OC)cc2c(c1C)Oc1c(Cl)c(O)c(Cl)c(C)c1C(=O)O2 yielded an IC50 of 17.3 µM.
In the case of CN1c2ccccc2C(=O)NC12CCN(C(=O)NCc1ccccc1)CC2, the IC50 is reported as > 40 µM (inactive).
In the case of CCCN1CCN(C(=O)Cn2c(C)ccc(NC(=O)c3ccccc3)c2=O)CC1, the IC50 is reported as > 40 µM (inactive).
COc1ccc(-c2nc(Cn3nnc(C(=O)Nc4ccc(C)c(C)c4)c3N)c(C)o2)cc1 showed an IC50 of 29.1 µM.
In the case of CCCCOc1ccc(C(=O)n2ccn(S(=O)(=O)c3ccc(C)cc3)c2=O)cc1, the IC50 is reported as > 40 µM (inactive).
In the case of Cc1ccc(NC(=O)Cn2cc(C(=O)c3ccccc3)c(=O)c3cc(C)ccc32)cc1, the IC50 is reported as 23.9 µM.
With NC(=O)C1(N2CCCCC2)CCN(c2ncc3c(=O)n(-c4ccccc4)c(=O)[nH]c3n2)CC1 the IC50 was > 40 µM (inactive).
Compound C[C@@H]1CO[C@@H]2C3=C(C(=O)C=CC3=O)[C@H]3OC(=O)[C@@H]4CCC5[C@@H]1CCC52C34 (stereo not given in full) has an IC50 of 18.5 µM.
For O=C(NCc1ccccc1)Nc1cccc2ccccc12, the IC50 was > 40 µM (inactive).
In the case of O=C(c1cc(S(=O)(=O)Nc2ccc(Cl)cc2)ccc1Cl)N1CCCc2ccccc21, the IC50 is reported as > 40 µM (inactive).
With Cc1ccc(-c2nnc3ccc(SCC(=O)N4CCCc5ccccc54)nn23)cc1 the IC50 was > 40 µM (inactive).
For CCOc1ccc2c(c1)c(=O)c(C(=O)c1ccccc1)cn2CC(=O)Nc1ccccc1, the IC50 was > 40 µM (inactive).
With CCC(C)N1CNc2c(c(=O)[nH]c(=O)n2Cc2ccco2)C1 (stereo not given) the IC50 was > 40 µM (inactive).
For Cc1cccc(C(=O)Nc2cccc(SC(C(=O)Nc3ccc(O)c(C(=O)O)c3)c3ccccc3)c2)c1 (stereo not given), the IC50 was > 40 µM (inactive).
With O=C(C1=CSCCO1)N1CCc2ccccc2C1 the IC50 was > 40 µM (inactive).
With O=C(Cn1ncc2c(=O)oc3ccccc3c21)NCc1ccc2c(c1)OCO2 the IC50 was > 40 µM (inactive).
CC(=O)NS(=O)(=O)c1ccc(NC(=O)/C=C/c2cn(-c3ccccc3)nc2-c2ccccc2)cc1 gave an IC50 of 18.8 µM.
In the case of O=C(Cn1c(=O)n(Cc2ccc3c(c2)OCO3)c(=O)c2ccccc21)NCc1ccco1, the IC50 is reported as 30.5 µM.
In the case of CC(C)=CCc1c2c(c3occ(-c4ccc(O)cc4)c(=O)c3c1O)C=CC(C)(C)O2, the IC50 is reported as > 40 µM (inactive).
In the case of CCN(Cc1ccccc1)C(=O)Cn1ccc2ccn(C)c2c1=O, the IC50 is reported as > 40 µM (inactive).
O=C(Cn1c(=O)n(-c2ccc(Cl)cc2)c(=O)c2c3c(sc21)CCCC3)NCC1CCCO1 (stereo not given) was tested, and the IC50 was > 40 µM (inactive).
With O=C(NCCc1nc2ccccc2n1CCOc1ccccc1Cl)C1CCCCC1 the IC50 was 36.8 µM.
Work on CC(=O)O[C@@H](C/C=C(\C)C(=O)O)[C@@H](C)[C@H]1C[C@H](OC(C)=O)[C@@]2(C)C3=CC[C@H]4C(C)(C)[C@H](O)CC[C@]4(C)C3=CC[C@]12C yielded an IC50 of 18 µM.
COc1c2nc3ccccc3oc-2cc(=O)c1OC was tested, and the IC50 was > 40 µM (inactive).
For COc1ccc(OC)c(NC2=NS(=O)(=O)C(c3cccc(Br)c3)=C2C)c1, the IC50 was > 40 µM (inactive).
For Cc1ccc(C(=O)Nc2ccc3c(c2)Sc2ncccc2C(=O)N3C(C)C)cc1C, the IC50 was > 40 µM (inactive).
With CCOCc1ccc(C(=O)N[C@H](C)c2nc3cc(-c4ccc(OC)cc4)ncn3n2)cc1 the IC50 was > 40 µM (inactive).
In the case of O=C(Cn1c(=O)n(Cc2ccc3c(c2)OCO3)c(=O)c2cccnc21)Nc1ccc(F)cc1, the IC50 is reported as > 40 µM (inactive).
Cc1[nH]nc(NC(=O)C2COc3ccccc3O2)c1-c1ccccc1 (stereo not given) was tested, and the IC50 was > 40 µM (inactive).
